The results in this text go back to patent US9556437B2, “FAT1 gene in cancer and inflammation” (DEPARTMENT OF BIOTECHNOLOGY (DBT), priority 2012, dated 2017).

Entries after “also recorded” stand apart in the source; their conditions may differ.

Format in all cases: cell-based, human
Series [1] deals with A172 cells. Kind of series: Migration assay, modified Boyden chamber. The following applies: A172siFAT1 vs siControl, 24 hrs assay, 72 hrs post-transfection, P<0.001. As for the experimental part:
(§1) Migration and Invasion Assays: The modified Boyden chamber/matrigel assay was performed according to the manufacturer's directions (BD Biosciences, Bedford, Mass.). For in vitro migration assays, chambers with control inserts that lacked the matrigel coating were used. Transfections were carried out in U87MG and A172 cells and 48 hrs later 3×10^4 U87MG cells/well and 7×10^4 A172 cells/well were resuspended in serum-free DMEM and seeded in triplicate in matrigel-coated (1 mg/ml; BD Biosciences) and uncoated control inserts (8-μm pore-size, BD Bioscience, Bedford, Mass.). The remaining protocol was done as previously described.

Series [2] relates to U87MG cells. Put plainly: Migration assay, modified Boyden chamber. To be noted: U87MGsiFAT1 vs siControl, 24 hrs assay, 72 hrs post-transfection, P<0.01. Here is the method:
as §1

For series [3], the system named is PDCD4. Put plainly: PDCD4 mRNA expression by q-PCR. The following applies: 72 hrs post siRNA transfection. As for the experimental part:
(§2) Cell Culture and siRNA Transfection: The human glioma cell lines U87MG, U373, A172, T98G, GOS3 and SW1088 were obtained from ATCC; Rockville, Md., cultured in DMEM (Sigma-Aldrich, Switzerland) supplemented with 10% (v/v) FCS (Sigma-Aldrich), 3.7 g/l sodium bicarbonate (Sigma-Aldrich), Ciprofloxacin 10 μg/ml and 5% CO2 at 37° C. For transfection, 2×10^5 cells were seeded per 25 cm^2 flask. After 24 hrs, cells were transfected with FAT1 siRNA and universal medium GC control siRNA (Invitrogen) according to the manufacturer's protocol with a final concentration of 20 nM of siRNA using LIPOFECTAMINE 2000 (Invitrogen) and Opti-Mem media (Invitrogen). After 4 hrs of siRNA transfection, the media was supplemented with DMEM containing 2×FCS. The ability of each siRNA to mediate knockdown of FAT1 mRNA was confirmed using qRT-PCR. Photomicrographs of the cells were taken using an inverted phase contrast microscope (Nikon TMS, Phase contrast microscope, Japan). For simultaneous knockdown of FAT1 and PDCD4, siRNA from Dharmacon were used. Transfection was performed as earlier with 50 nM of FAT1 siRNA along with 50 nM of PDCD4 siRNA or 50 nM of control siRNA.
cDNA Synthesis and Quantitative PCR: Total RNA was isolated from cells at appropriate time point (vide supra) using TRIzol reagent (Invitrogen), quantified using a Nanodrop ND-1000 spectrophotometer. DNase (Ambion) treatment was given and 1 μg of total RNA was used for cDNA synthesis, done by Fermentas RevertAid™ First Strand cDNA Synthesis Kit using random decamers. PCR reactions were carried in 10 μL reaction volumes (2.5 μL of 1:5 diluted cDNA, […] of primer mix (0.5 pmol/μL as final concentration of each primer), 1 μL, of 10× Taq Buffer A, 0.5 U Taq polymerase (Bangalore Genei, Bangalore, India), 1 μL Syto9 (Invitrogen), 0.25 μL of 10 mM dNTPs (MBI Fermentas, Thermo Fisher Scientific, Rockford, Ill. USA), and 4.6 μL of nuclease-free water (Ambion) on a RotorGene6000 Real Time PCR in triplicates. The detail of the primers used is given in Table 1. ΔCt values were defined as target gene Ct minus 18s RNA Ct and averaged for each triplicate sample. Statistical significance was determined by Student's t-test analysis (P<0.05).

In series [4] the test system is FAT1 mRNA. Put plainly: FAT1 knockdown by siRNA, q-PCR for FAT1. To be noted: U87MG cell line. As for the experimental part:
as §2
(§3) cDNA Synthesis and Quantitative PCR: Total RNA was isolated from cells at appropriate time point (vide supra) using TRIzol reagent (Invitrogen), quantified using a Nanodrop ND-1000 spectrophotometer. […]

For series [5], the system named is c-jun. Kind of series: Western blot total c-jun. To be noted: U87MGsiFAT1 vs siControl. As for the experimental part:
(§4) Western Blotting Analyses: Cells were lysed in triple detergent buffer containing protease and phosphatase inhibitors (Sigma Aldrich), lysates were quantified by BCA kit (Pierce, Thermo Fisher Scientific, Rockford, Ill. USA) and electrophoresed in 10% SDS-PAGE and electroblotted on nitrocellulose membrane (Millipore, Billerica, Mass., USA). Membrane was blocked with 5% bovine serum albumin (BSA) in 1×TBS at 4° C. for overnight. Primary and secondary antibody was diluted in 5% BSA and 0.1% tween-20 in 1×TBS. Blot was incubated in primary antibody overnight at 4° C. followed by secondary antibody incubation for 2 hrs at room temperature. Blot was developed by BCIP-NBT (Promega, Madison, Wis., USA) and captured using Alpha Imager EP software.

Series [6] relates to phospho-Akt. Put plainly: Western blot phospho-Akt. The following applies: U87MG cells after FAT1 knockdown. Here is the method: FIG. 9: FAT1 knockdown results in increased p-akt level in U87MG cell line; Akt is known to negatively regulate PDCD4 expression; therefore, the effect of FAT1 knockdown on the phosphorylation status of Akt in U87MG cells was checked by Western blot analysis using β-actin as a loading control.
as §4

Series [7] concerns c-jun. Put plainly: c-jun mRNA level by q-PCR. To be noted: U87MGsiFAT1 vs U87MGsiControl. Here is the method: as §2, §3
The subject of series [8] is MMP3. Kind of series: MMP3 mRNA expression by q-PCR. The following applies: U87MGsiFAT1 cells. As for the experimental part: as §2, §3
Series [9] has as its system COX-2 promoter. Kind of series: COX-2 promoter luciferase assay. The following applies: U87MG, vs siControl+DMSO; SR11302 10 μM, 48 hrs. Here is the method: AP-1 and COX-2 Promoter Luciferase Assay: U87MG cells (40000 cells/well) were plated in 6-well plates in triplicate on day zero. On day 1, cells were transfected with siFAT1 and siControl. On day 2 cells were transiently transfected with 4×AP-1-luciferase reporter plasmids as described previously. Cells were transfected with 1 μg of AP-17× luciferase reporter plasmid, along with 50 ng of pRL-TK (Renilla luciferase) control plasmid using LIPOFECTAMINE2000 as the transfection reagent. After 48 hrs, the cells were lysed by 1× passive-lysis-buffer (Promega, Madison, Wis., USA) and assayed for luciferase activity as previously described. For COX-2 luciferase assay U87MG cells were transfected with siFAT1 and siControl on day 1 and after 4 hrs incubation were treated with 10 μM SR11302. On day2 cells were transiently transfected with COX-2 reporter plasmid and again treated with 10 μM SR11302. After 48 hrs, the cells were assayed for luciferase activity.

In series [10] the test system is COX-2. Kind of series: Western blot COX-2 protein. The following applies: U87MGsiFAT1 vs siControl. Here is the method: as §4
Series [11] deals with PLAU (Urokinase). Put plainly: PLAU mRNA expression by q-PCR. To be noted: U87MGsiFAT1 cells. Here is the method:
as §2, §3

The test system of series [12] is U87MG and A172 cells. Kind of series: Cell morphology, phase contrast microscopy. To be noted: U87MGsiFAT1 and A172siFAT1 vs siControl, 72 hrs post transfection. As for the experimental part:
as §2

For the substance “siFAT1: FAT1 specific siRNA (Invitrogen), FAT Stealth RNAi siRNA-I (HSS103567), used for further experiments (sense CCCAACACACCUGUGGUCAUGGUAA; antisense UUACCAUGACCACAGGUGUGUUGGG; Stealth modification, chemistry not fully specified; listed as Homo sapiens)”, the reduction in migration in [1] is > 3 fold; in series [2], > 2 fold. Moreover, the “increase in PDCD4 mRNA expression” value is given as 2.8 fold in series [3] (A172, vs siControl); 3.5 fold in [3] (T98G, vs siControl); 2.4 fold in series [3] (U87MG, vs siControl); 3.2 fold in series [3] (U373MG, vs siControl); “more than two fold” in [3] (all the GBM cell lines (U87MG, A172, U373 and T98)). For the same substance, the “knockdown efficiency among three FAT1 siRNAs” value in series [4] is on record as “maximum knockdown efficiency”. In addition, the “total c-jun protein level” value in series [5] is given as “reduction”. Besides, the phospho-Akt level result in series [6] is on record as “increase”. Besides, in series [7], the “c-jun mRNA level” value was “decreased by two folds; also recorded: reduced by two folds”. For the same substance, the “decrease in MMP3 mRNA expression” value in series [8] is on record as “more than 10 fold”. The “decrease in COX-2 luciferase activity” value in [9] amounted to 1.8 fold. In series [10], the COX-2 protein expression entry was “Significant reduction; also recorded: decreased”. In series [11], the “decrease in PLAU mRNA expression” value was “more than 10 fold”. Besides, the cell morphology entry in series [12] is “significant morphological alterations; also recorded: Distinct phenotypic changes”.
